# Test results from patent US8846746B2, “Pyrazole compound and pharmaceutical use thereof” (Japan Tobacco Inc., priority 2011, dated 2014).
# Biological target: human SGLT1 (Homo sapiens (Human), UniProt P13866)
# Test: SGLT1 inhibitory activity: 14C-AMG uptake into CHO-K1 cell line stably expressing human SGLT1
# Type: cell-based
# Conditions: for IC50: 14C-AMG uptake; for inhibition at 0.1 µM: CHO-K1, at 0.1 uM
# In short: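 Human SGLT1 was stably expressed in CHO-K1 cells. Cells were first held 20 min in sodium-free buffer, then exposed to compound in Na(+)/BSA buffer with tracer and AMG (2 mM in the added solution).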
# [1] = CHO-K1 cells stably expressing human SGLT1
# [2] = CHO-K1 cells expressing human SGLT1
# Chain of human SGLT1 (P13866 whole entry): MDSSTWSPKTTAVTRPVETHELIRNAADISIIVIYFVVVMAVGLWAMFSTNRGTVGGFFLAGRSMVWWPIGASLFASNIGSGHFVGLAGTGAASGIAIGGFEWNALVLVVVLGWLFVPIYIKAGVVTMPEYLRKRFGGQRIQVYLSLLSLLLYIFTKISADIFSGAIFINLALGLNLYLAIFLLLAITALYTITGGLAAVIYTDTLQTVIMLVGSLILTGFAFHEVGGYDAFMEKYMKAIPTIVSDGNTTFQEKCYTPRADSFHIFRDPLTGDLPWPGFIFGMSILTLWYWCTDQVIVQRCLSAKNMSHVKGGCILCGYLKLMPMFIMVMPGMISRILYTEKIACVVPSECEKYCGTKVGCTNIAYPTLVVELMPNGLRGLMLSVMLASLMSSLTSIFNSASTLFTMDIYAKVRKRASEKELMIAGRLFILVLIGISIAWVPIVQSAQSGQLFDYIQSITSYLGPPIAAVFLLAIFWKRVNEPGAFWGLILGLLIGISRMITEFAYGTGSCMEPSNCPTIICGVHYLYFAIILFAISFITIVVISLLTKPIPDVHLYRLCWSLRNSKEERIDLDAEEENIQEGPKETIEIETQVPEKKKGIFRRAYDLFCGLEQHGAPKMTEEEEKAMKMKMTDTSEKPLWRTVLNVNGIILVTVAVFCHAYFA
IC50 [1],IC50 [2],SMILES,further results
17 nM,,CCCc1cccc(-c2cc(NC(=O)[C@@H]3CNC(=O)C3)nn2-c2ccccc2CC)c1 [Example 358],
15 nM,,CCCc1cccc(-c2cc(NC(=O)[C@H]3COC(=O)N3)nn2-c2ccccc2)c1 [Example 369],
3.4 nM,,"O=C(Nc1cc(-c2cccc(COCC(F)(F)F)c2)n(-c2ccccc2)n1)C1CNC(=O)C12CC2 (single isomer, unassigned) [Example 250, 4-oxo-5-azabispiro[2.4]heptane-7-carboxylic acid{1-phenyl-5-[3-(2,2,2-trifluoroethoxymethyl)phenyl]-1H-pyrazol-3-yl}amide]",
,,CC1C(=O)NC(O)C1C(=O)Nc1cc(-c2cccc(OC(F)(F)F)c2)n(-c2ccc(F)cc2)n1 (racemic) [Example 259],inhibition at 0.1 µM: 20%
,,O=C1COC(C(=O)Nc2cc(-c3cccc(OC(F)(F)F)c3)n(-c3ccccc3)n2)CN1 (centres unmarked) [Example 276],inhibition at 0.1 µM: 30%
38 nM,,O=C1NC[C@@H](C(=O)Nc2cc(-c3cccc(COCC(F)(F)F)c3)n(-c3ccccc3)n2)N1 [Example 558],
,,O=C1C[C@H](C(=O)Nc2cc(-c3cccc(CO[C@@H]4CCCOC4)c3)n(-c3ccccc3)n2)CN1 [Example 538],inhibition at 0.1 µM: 33%
2.1 nM,,COc1cc(F)cc(-n2nc(NC(=O)[C@@H]3CNC(=O)C3)cc2-c2cccc(CO[C@H](C)C(F)(F)F)c2)c1 [Example 533],
21 nM,,CCOCc1cccc(-c2cc(NC(=O)[C@H]3CNC(=O)C3)nn2-c2ccccc2)c1 [Example 285],
,12 nM,C[C@H]1C(=O)NC[C@@H]1C(=O)Nc1cc(-c2cccc(C(F)(F)F)c2)n(-c2ccc(F)cc2)n1 [Example 202],
,17 nM,"CC1(C)CCCC(c2cc(NC(=O)[C@H]3CNC(=O)C3)nn2-c2ccccc2)C1 (single isomer, unassigned) [Example 88]",
39 nM,,CCCCOc1cccc(-c2cc(NC(=O)[C@@H]3CNC(=O)C3)nn2-c2ccccc2)c1 [Example 316],
,85 nM,O=C1C[C@@H](C(=O)Nc2cc(-c3cccc(OC(F)(F)F)c3)n(CCc3ccccc3)n2)CN1 [Example 110],
,66 nM,CCCc1cccc(-c2cc(NC(=O)C3CNC(=O)C3)nn2C(C)C)c1 (racemic) [Example 17],
1.7 nM,,COCCOc1ccc(F)c(-n2nc(NC(=O)[C@@H]3CNC(=O)C3)cc2-c2cccc(CO[C@H](C)C(F)(F)F)c2)c1 [Example 465],
,37 nM,O=C1C[C@@H](C(=O)Nc2cc(-c3cccc(OC(F)(F)F)c3)n(-c3ccc(Cl)cc3)n2)CN1 [Example 105],
19 nM,,O=C1C[C@H](C(=O)Nc2cc(-c3cccc(COC(F)(F)F)c3)n(-c3ccccc3)n2)CN1 [Example 399],
,54 nM,C[C@H]1C(=O)NC[C@@H]1C(=O)Nc1cc(-c2cccc(OC(F)(F)F)c2)n(CCC(F)(F)F)n1 [Example 191],
5.7 nM,,CC(C)CSc1cccc(-c2cc(NC(=O)[C@@H]3CNC(=O)C3)nn2-c2ccccc2)c1 [Example 546],
,6.3 nM,O=C1C[C@@H](C(=O)Nc2cc(-c3cccc(OC(F)(F)F)c3)n(-c3ccccc3F)n2)CN1 [Example 131],
11 nM,,COCc1cccc(-n2nc(NC(=O)[C@@H]3CNC(=O)C3)cc2-c2cccc(COCC(F)(F)F)c2)c1 [Example 489],
26 nM,,O=C1C[C@H](C(=O)Nc2cc(-c3cccc(OC(F)(F)F)c3)n(-c3cccc(F)c3)n2)CN1 [Example 467],
,14 nM,C[C@H]1C(=O)NC[C@@H]1C(=O)Nc1cc(-c2cccc(C(C)(C)C)c2)n(C2CCOCC2)n1 [Example 178],
3.3 nM,,CCCc1cccc(-c2cc(NC(=O)[C@@H]3CNC(=O)C3)nn2-c2cccc(CCC)c2)c1 [Example 497],
,17 nM,CCCc1cccc(-c2cc(NC(=O)C3CNC(=O)C3CC)nn2-c2ccccc2)c1 (racemic) [Example 60],
,6.2 nM,"C[C@H]1C(=O)NC[C@@H]1C(=O)Nc1cc(-c2cccc(OC(F)(F)F)c2)n(-c2cccc(F)c2)n1 [Example 3, (3R,4R)-4-methyl-5-oxopyrrolidine-3-carboxylic acid[1-(3-fluorophenyl)-5-(3-(trifluoromethoxy)phenyl)-1H-pyrazol-3-yl]amide]",
